Test results: US20210300924A1, “5-[6-[[3-(4,5,6,7-TETRAHYDROPYRAZOLO[4,3-C]PYRIDIN-1-YL)AZETIDIN-1-YL]METHYL]MORPHOLIN-4-YL]QUINOLINE-8-CARBONITRILE DERIVATIVES AND SIMILAR COMPOUNDS AS TLR7-9 ANTAGONISTS FOR TREATING SYSTEMIC LUPUS ERYTHEMATOSUS” (Hoffmann-La Roche Inc., priority 2018, published 2021)

Assays:
hERG channel = target: T1, hERG channel (Homo sapiens, UniProt Q12809); experiment: hERG channel inhibition assay (patch-clamp, CHOhERG cells); assay type: cell-based; settings: for IC50 / IC20: CHOhERG cells, whole-cell patch-clamp; for IC20: human, CHO cells stably expressing hERG (CHOhERG cells); for hERG IC20/TLR7 IC50 / hERG IC20/TLR8 IC50 / hERG IC20/TLR9 IC50: safety ratio, >30 suggests sufficient window
T1 construct: expressed in transfected cells; host or cells: CHO (Chinese hamster ovary), CHOhERG
T1 sequence (Q12809 whole entry): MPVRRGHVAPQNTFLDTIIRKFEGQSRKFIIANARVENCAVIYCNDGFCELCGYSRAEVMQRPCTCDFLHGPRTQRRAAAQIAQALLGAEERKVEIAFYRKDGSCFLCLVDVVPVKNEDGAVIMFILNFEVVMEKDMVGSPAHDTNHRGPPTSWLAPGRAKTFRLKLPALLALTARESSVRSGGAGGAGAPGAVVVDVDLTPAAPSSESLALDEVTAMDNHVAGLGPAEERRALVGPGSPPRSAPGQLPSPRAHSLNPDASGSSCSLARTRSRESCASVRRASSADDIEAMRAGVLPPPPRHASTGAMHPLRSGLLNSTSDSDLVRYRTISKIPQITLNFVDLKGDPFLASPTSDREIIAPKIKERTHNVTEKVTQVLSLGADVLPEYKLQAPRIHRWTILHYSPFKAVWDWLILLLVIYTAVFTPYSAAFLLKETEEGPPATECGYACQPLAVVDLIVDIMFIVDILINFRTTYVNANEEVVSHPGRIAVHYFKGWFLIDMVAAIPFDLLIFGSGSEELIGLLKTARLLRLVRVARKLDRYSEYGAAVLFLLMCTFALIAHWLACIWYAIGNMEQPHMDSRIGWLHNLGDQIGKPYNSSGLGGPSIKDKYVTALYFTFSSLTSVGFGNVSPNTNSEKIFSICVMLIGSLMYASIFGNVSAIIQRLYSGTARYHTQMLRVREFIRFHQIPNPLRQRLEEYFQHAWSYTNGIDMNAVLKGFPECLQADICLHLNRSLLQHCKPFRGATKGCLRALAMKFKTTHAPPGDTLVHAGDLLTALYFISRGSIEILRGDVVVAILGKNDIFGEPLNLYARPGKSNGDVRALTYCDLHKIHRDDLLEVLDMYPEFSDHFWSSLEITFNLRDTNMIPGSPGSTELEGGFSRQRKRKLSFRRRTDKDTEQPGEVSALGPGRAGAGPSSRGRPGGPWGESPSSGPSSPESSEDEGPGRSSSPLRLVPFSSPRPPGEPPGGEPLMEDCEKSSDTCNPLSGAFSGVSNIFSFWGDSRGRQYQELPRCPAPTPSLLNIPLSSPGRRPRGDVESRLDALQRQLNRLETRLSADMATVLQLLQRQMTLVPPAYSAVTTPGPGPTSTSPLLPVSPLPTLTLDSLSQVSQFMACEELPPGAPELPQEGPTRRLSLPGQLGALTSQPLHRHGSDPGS
Protocol: hERG Channel Inhibition Assay:
The hERG K^+ channels were cloned in humans and stably expressed in a CHO (Chinese hamster ovary) cell line. CHOhERG cells were used for patch-clamp (voltage-clamp, whole-cell) experiments. Cells were stimulated by a voltage pattern to activate hERG channels and conduct hERG currents (rapid delayed outward rectifier potassium current of the hERG channel). After the cells were stabilized for a few minutes, the amplitude and kinetics of IKhERG were recorded at a stimulation frequency of 0.1 Hz (6 bpm). Thereafter, the test compound was added to the preparation at increasing concentrations. For each concentration, an attempt was made to reach a steady-state effect, usually, this was achieved within 3-10 min at which time the next highest concentration was applied. The amplitude and kinetics of IKhERG are recorded in each concentration of the drug which were compared to the control values (taken as 100%). (references: Redfern W S, Carlsson L, Davis A S, Lynch W G, MacKenzie I, Palethorpe S, Siegl P K, Strang I, Sullivan A T, Wallis R, Camm A J, Hammond T G. 2003; Relationships between preclinical cardiac electrophysiology, clinical QT interval prolongation and torsade de pointes for a broad range of drugs: evidence for a provisional safety margin in drug development. Cardiovasc. Res. 58:32-45, Sanguinetti MC, Tristani-Firouzi M. 2006; hERG potassium channels and cardiac arrhythmia. Nature 440:463-469, Webster R, Leishman D, Walker D. 2002; Towards a drug concentration effect relationship for QT prolongation and torsades de pointes. Curr. Opin. Drug Discov. Devel. 5:116-26).

TLR9 = target: T2, TLR9 (Homo sapiens, UniProt Q9NR96); experiment: Human PBMC cell-based assay; parameters: endogenous in cells; host or cells: human PBMC from healthy donor whole blood; settings: CpG ODN 2216 stimulation, overnight, cytokine readout, read-out: hPBMC/TLR9 IC50
T2 sequence (Q9NR96 26-1032): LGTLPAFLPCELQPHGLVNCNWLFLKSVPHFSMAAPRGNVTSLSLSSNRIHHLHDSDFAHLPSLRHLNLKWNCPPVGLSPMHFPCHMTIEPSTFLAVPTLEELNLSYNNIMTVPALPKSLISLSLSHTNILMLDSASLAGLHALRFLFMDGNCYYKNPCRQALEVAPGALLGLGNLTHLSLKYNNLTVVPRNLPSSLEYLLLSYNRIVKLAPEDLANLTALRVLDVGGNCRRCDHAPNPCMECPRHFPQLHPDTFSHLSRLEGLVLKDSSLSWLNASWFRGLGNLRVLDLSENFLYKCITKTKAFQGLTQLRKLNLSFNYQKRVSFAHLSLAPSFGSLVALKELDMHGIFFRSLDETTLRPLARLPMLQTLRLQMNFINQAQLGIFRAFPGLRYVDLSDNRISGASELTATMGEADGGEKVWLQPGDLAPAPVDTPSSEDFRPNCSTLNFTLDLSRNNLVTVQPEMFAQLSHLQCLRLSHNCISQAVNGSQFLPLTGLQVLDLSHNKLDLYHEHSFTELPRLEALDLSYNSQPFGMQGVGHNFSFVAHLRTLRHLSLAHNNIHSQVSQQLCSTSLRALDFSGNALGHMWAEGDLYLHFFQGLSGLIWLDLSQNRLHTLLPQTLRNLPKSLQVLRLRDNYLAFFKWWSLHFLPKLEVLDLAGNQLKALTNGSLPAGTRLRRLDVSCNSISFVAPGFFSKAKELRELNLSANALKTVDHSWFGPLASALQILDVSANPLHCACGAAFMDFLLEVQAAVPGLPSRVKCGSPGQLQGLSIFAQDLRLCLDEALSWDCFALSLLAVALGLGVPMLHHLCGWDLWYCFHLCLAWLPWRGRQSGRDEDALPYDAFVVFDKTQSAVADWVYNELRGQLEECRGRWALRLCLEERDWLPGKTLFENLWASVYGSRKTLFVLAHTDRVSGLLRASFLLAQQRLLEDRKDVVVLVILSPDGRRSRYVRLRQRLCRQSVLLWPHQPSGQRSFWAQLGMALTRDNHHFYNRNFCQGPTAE
From the text: Human PBMC Cell-Based Assay
Unlike the HEK reporter cell lines, human peripheral blood mononuclear cell (PBMC) represents primary human immune cells in blood mainly consisting of lymphocytes, monocytes, and dendritic cells. These cells express TLR7, TLR8, or TLR9, and therefore are natural responders to respective ligand stimulation. Upon activation of these TLRs, PBMCs secrete similar cytokines and chemokines in vitro and in vivo, and therefore the in vitro potency of a TLR7/8/9 antagonist in human PBMC is readily translatable to its pharmacodynamics response in vivo.
Human peripheral blood mononuclear cells (PBMC) were isolated from freshly-drawn lithium-heparinized (Lithium Heparin Plus blood Collection tube, BD Vacutainer®) healthy donor whole blood by density gradient (Ficoll-Paque™ PLUS, GE Healthcare life Sciences). Briefly, […] was diluted with 25 mL PBS (without Ca^2+, Mg^2+) in a 50 mL conical tube with porous barrier (Leucosep tube, Greiner bio-one), where 15.5 mL Ficoll-Paque was under laid after spinning. Tubes were centrifuged for 20 minutes at 800×g (1946 rpm) with the brake in the off position, and PBMC were collected from the buffy coat. Cells were then washed twice in PBS, and red blood cells were lysed by suspension in 2 mL (Red Blood Cell Lysis Buffer, Alfa Aesar) for 5-10 minutes at room temperature. After a final wash in PBS, PBMC were resuspended at a final concentration of 2×10^6 cells/mL in RPMI-1640 media with GlutaMAX™ (Gibco) supplemented with 10% Fetal Bovine Serum (Sigma) and plated at 150 μL/well (3×10^5 cells/well) in tissue culture treated round bottom 96-well plates (Corning Incorporated). Antagonist compounds (compounds of this invention) solubilized and serial diluted in 100% DMSO were added in duplicate to cells to yield a final concentration of 1% DMSO (v/v). PBMC were incubated with antagonist compounds for 30 minutes at 37° C., 5% CO2 before adding various TLR agonist reagents in 48 μL complete media per well as follows (final concentrations indicated): CpG ODN 2216 (InvivoGen) at […] for TLR9, ORN 06/LyoVec (InvivoGen) at 1 μg/mL for TLR8 and R848 (InvivoGen) at 1 μg/mL for TLR7 and TLR8. PBMC were incubated overnight at 37° C. with 5% CO2. Cell culture supernatants were collected, and levels of various human cytokines were assessed by Luminex assay (ProcartaPlex™ Multiplex Immunoassay, Invitrogen) or ELISA procedure according to the manufacturer's recommended protocol (eBioscience, ThermoFisher Scientific). Viability of the cells was also checked with Cell Viability Assay (CellTiter Glo® Luminescent Cell Viability Assay, Promega).

Row | Structure (SMILES) | IC50 (TLR9) [nM] | IC50 (hERG channel) [nM] | IC20 (hERG channel) [nM] | hERG IC20/TLR7 IC50 (hERG channel) | hERG IC20/TLR8 IC50 (hERG channel) | hERG IC20/TLR9 IC50 (hERG channel)
1 | C[C@@H]1CN(c2ccc(C#N)c3ncccc23)C[C@H](CN2CC(n3cc4c(n3)CNCC4)C2)O1 [Example 4, 5-[(2R,6S)-2-methyl-6-[[3-(4,5,6,7-tetrahydropyrazolo[3,4-c]pyridin-2-yl)azetidin-1-yl]methyl]morpholin-4-yl]quinoline-8-carbonitrile] | 198 | > 20000 | > 10000 | >1136.4 | >1162.8 | >314.5
2 | C[C@@H]1CN(c2ccc(C#N)c3ncccc23)C[C@H](CN2CC(n3cc4c(n3)CN(C)CC4)C2)O1 [Example 5, 5-[(2R,6S)-2-methyl-6-[[3-(6-methyl-5,7-dihydro-4H-pyrazolo[3,4-c]pyridin-2-yl)azetidin-1-yl]methyl]morpholin-4-yl]quinoline-8-carbonitrile] | 318 | > 20000 | > 10000 | >2857.1 | >1653.6 | >73.1
3 | Cc1nn(C2CN(C[C@H]3CN(c4ccc(C#N)c5ncccc45)C[C@@H](C)O3)C2)c2c1CNCC2 [Example 12, 5-[(2R,6S)-2-methyl-6-[[3-(3-methyl-4,5,6,7-tetrahydropyrazolo[4,3-c]pyridin-1-yl)azetidin-1-yl]methyl]morpholin-4-yl]quinoline-8-carbonitrile] | 92 | > 20000 | > 10000 | >666.7 | >226.8 | >127.6
4 | Cc1c2c(nn1C1CN(C[C@H]3CN(c4ccc(C#N)c5ncccc45)C[C@@H](C)O3)C1)CCNC2 [Example 13, 5-[(2R,6S)-2-methyl-6-[[3-(3-methyl-4,5,6,7-tetrahydropyrazolo[4,3-c]pyridin-2-yl)azetidin-1-yl]methyl]morpholin-4-yl]quinoline-8-carbonitrile] | 119 | > 20000 | > 10000 | >694.4 | >222.2 | >84.5
5 | C[C@@H]1CN(c2ccc(C#N)c3ncccc23)C[C@H](CN2CC(n3ncc4c3CNCC4)C2)O1 [Example 3, 5-[(2R,6S)-2-methyl-6-[[3-(4,5,6,7-tetrahydropyrazolo[3,4-c]pyridin-1-yl)azetidin-1-yl]methyl]morpholin-4-yl]quinoline-8-carbonitrile] | 118 | > 20000 | > 10000 | >2901.3 | >1739.2 | >194.9
6 | C[C@@H]1Cc2c(cnn2C2CN(C[C@H]3CN(c4ccc(C#N)c5ncccc45)C[C@@H](C)O3)C2)CN1 [Example 16, 5-[(2R,6S)-2-methyl-6-[[3-[(6R)-6-methyl-4,5,6,7-tetrahydropyrazolo[4,3-c]pyridin-1-yl]azetidin-1-yl]methyl]morpholin-4-yl]quinoline-8-carbonitrile] | 84 | > 20000 | > 10000 | >2381.0 | >641.0 | >129.0

Further lines, with some results ahead:

Row | IC50 (TLR9) [nM] | Structure (SMILES) | IC50 (hERG channel) [nM] | IC20 (hERG channel) [nM] | hERG IC20/TLR7 IC50 (hERG channel) | hERG IC20/TLR8 IC50 (hERG channel) | hERG IC20/TLR9 IC50 (hERG channel)
7 | 115 | C[C@@H]1CN(c2ccc(C#N)c3ncccc23)C[C@H](CN2CC(n3cc4c(n3)CN[C@@H](C)C4)C2)O1 (single isomer, unassigned) [Example 29] | > 20000 | > 10000 | >1265.8 | >877.2 | >138.3
8 | 72 | C[C@@H]1CN(c2ccc(C#N)c3ncccc23)C[C@H](CN2CC(n3cc4c(n3)[C@@H](C)NCC4)C2)O1 (single isomer, unassigned) [Example 33] | > 20000 | > 10000 | >1369.9 | >763.4 | >291.5
9 | 97 | C[C@@H]1CN(c2ccc(C#N)c3ncccc23)C[C@H](CN2CC(n3ncc4c3CCN[C@@H]4C)C2)O1 [Example 20, 5-[(2R,6S)-2-methyl-6-[[3-[(4R)-4-methyl-4,5,6,7-tetrahydropyrazolo[4,3-c]pyridin-1-yl]azetidin-1-yl]methyl]morpholin-4-yl]quinoline-8-carbonitrile] |  |  |  |  | 
10 | 162 | C[C@@H]1Cc2cn(C3CN(C[C@H]4CN(c5ccc(C#N)c6ncccc56)C[C@@H](C)O4)C3)nc2CN1 (single isomer, unassigned) [Example 30] | > 20000 | > 10000 | >2083.3 | >735.3 | >175.7
